Here are results for four compounds from patent US20050277615A1, “Pharmaceutical compositions having anti-inflammatory activity” (CAN-FITE BIOPHARMA LTD., priority 2004, published 2005).

Data set [1] concerns the target T1, human A3 receptor as expressed in HEK 293 cells (Homo sapiens, UniProt P0DMS8).
T1 construct: expressed in transfected cells; host or cells: HEK 293
T1 sequence (P0DMS8 1-318): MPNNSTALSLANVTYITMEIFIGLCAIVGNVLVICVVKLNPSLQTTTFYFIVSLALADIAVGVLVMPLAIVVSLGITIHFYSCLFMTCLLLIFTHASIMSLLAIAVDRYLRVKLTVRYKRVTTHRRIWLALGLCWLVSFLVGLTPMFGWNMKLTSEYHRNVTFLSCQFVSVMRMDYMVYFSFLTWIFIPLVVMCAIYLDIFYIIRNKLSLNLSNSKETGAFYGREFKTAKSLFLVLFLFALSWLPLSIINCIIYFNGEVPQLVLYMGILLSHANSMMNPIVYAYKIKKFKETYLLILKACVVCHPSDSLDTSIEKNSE
In words: Radioligand binding, [125I]AB-MECA displacement. To be noted: human A3 receptor in HEK 293 cells, ±SEM, n = 3. The procedure:
General. […] AB-MECA, an A3 receptor agonist, was used. Displacement experiments were performed in the absence of GTP.
Radioligand Binding Studies. […] Incubations were carried out for 1 hr at 37° C. and were terminated by rapid filtration over Whatman GF/B filters, using a Brandell cell harvester (Brandell, Gaithersburg, Md.). Tubes were washed three times with 3 ml of buffer. Radioactivity was determined in a Beckman 5500B γ-counter. Nonspecific binding was determined in the presence of 10^−5 M R-PIA.
(§1) Data Analysis. Apparent Ki and EC50 values were computed from the displacement curves by non-linear regression of the competition curves with the software package Prism (Graph Pad, San Diego, Calif.).

For the next data set, the target named is T2, A1 receptor (Rattus norvegicus, UniProt P25099).
T2 sequence (P25099 1-326): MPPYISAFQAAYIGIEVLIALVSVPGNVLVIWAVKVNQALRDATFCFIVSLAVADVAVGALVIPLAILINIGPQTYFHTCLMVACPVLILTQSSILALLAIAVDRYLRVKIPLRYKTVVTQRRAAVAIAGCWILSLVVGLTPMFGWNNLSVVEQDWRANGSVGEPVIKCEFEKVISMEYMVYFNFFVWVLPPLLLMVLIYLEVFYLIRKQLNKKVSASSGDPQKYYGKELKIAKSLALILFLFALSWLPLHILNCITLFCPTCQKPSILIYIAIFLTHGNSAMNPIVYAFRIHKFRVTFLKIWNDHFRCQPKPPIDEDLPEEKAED
To be noted: Siddiqi et al (1995); cited from earlier work.

The target in another data set is A2a receptor (Rattus norvegicus, UniProt P30543). The note with it: Siddiqi et al (1995); cited from earlier work.
A2a receptor, sequence (P30543 whole entry): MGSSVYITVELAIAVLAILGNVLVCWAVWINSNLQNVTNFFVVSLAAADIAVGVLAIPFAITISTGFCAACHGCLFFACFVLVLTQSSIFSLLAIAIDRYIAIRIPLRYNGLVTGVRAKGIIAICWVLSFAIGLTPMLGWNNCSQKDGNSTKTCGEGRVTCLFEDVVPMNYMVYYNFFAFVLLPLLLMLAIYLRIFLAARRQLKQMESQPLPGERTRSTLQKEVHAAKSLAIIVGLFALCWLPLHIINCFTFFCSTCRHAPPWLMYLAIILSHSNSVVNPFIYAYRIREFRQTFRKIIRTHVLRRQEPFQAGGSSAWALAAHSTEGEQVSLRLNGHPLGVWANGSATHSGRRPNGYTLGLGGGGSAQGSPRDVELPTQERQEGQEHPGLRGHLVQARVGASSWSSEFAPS
In data set [2] the test system is multiple sclerosis (MS) patients. The note with it: patients having MS, U.S. Pat. No. 5,506,214; cited from earlier work.
A short description of data set [3]: Preliminary qualitative solubility study. Format: physicochemical. The note with it: 1 mg/ml, ambient temperature.
In data set [4] the target is T3, adenosine A1 receptor in rat brain cortex (Rattus norvegicus, UniProt P25099).
T3 construct: the adenosine A1 receptor in rat brain cortex; from tissue; host or cells: rat brain cortex
T3 sequence (P25099 1-326): T2 sequence (P25099 1-326)
The experiment in a line: Radioligand binding, [3H]DPCPX displacement. To be noted: rat cortical membranes, 10 μM.

The target of data set [5] is T4, A2A receptor in rat striatum (Rattus norvegicus, UniProt P30543).
T4 construct: the A2A receptor in rat striatum; from tissue; host or cells: rat striatum
T4 sequence (P30543 whole entry): as above
The experiment in a line: Radioligand binding, [3H]ZM 241385 displacement. The note with it: [3H]ZM 241385, rat striatal membranes.

In data set [6] the target is T5, human adenosine A2A receptors expressed in CHO cells (Homo sapiens, UniProt P29274).
T5 construct: expressed in transfected cells; host or cells: CHO
T5 sequence (P29274 whole entry): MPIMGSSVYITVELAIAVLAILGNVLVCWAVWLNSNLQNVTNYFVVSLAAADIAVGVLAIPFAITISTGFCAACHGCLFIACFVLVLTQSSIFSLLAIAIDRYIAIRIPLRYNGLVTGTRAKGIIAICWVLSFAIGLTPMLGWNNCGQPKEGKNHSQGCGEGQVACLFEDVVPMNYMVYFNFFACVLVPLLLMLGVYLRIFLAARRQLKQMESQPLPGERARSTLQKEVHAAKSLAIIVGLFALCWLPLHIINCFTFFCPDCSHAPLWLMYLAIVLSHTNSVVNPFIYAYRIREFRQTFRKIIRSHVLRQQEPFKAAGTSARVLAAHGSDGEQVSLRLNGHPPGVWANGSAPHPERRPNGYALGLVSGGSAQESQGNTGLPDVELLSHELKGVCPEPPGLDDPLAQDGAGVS
The experiment in a line: cAMP assay A2A (stimulation of cAMP production). Type of data set: cell-based. The procedure:
After incubation for 40 minutes at 37° C., 100 μL agonist was added. […] Wells were stored at −20° C. until assay.
Wells were stored at −20° C. until assay. […] As a buffer was used 150 mM K2HPO4/10 mM EDTA/0.2% Bovine Serum Albumine (BSA) at pH 7.5.
as §1
(Changes in cAMP serve as a functional read-out for many G protein-coupled receptors.)

For data set [7], the system named is Experimental autoimmune encephalomyelitis (EAE) in female Lewis rats. The experiment in a line: MBP-induced EAE in Lewis rats, clinical score. Format: in vivo, rat. To be noted: 10 μg/kg PO BID from day 7, difference in maximal clinical score P<0.01 (FIG. 1). The procedure: EAE is an inflammatory demyelinating disease of the nervous system, which serves as a model for multiple sclerosis (MS). EAE was induced by intradermal injection at the base of the tail of female Lewis rats (8 weeks old) with an emulsion consisting of the following for each rat: 100 μg myelin basic protein (MBP) from guinea pig (M2295; Sigma), 0.1 ml Complete Freund's adjuvant (CFA; F5506, Sigma), and 0.2 mg of Mycobacterium tuberculosis H37 Ra (M. tuberculosis, 3114, Difco). The emulsion was injected in two halves into the medial footpad of each hind limb of the rats.
The rats developed clinical EAE symptoms which were graded into the following categories: 0, no neurological symptoms; 1, loss of tail tonus and paralysis of the whole tail; 2, hind limbs weakness; 3, hind limbs paralysis; 4, quadriplegia; 5, moribund. The immunized rats developed acute monophasic EAE within 10 days after immunization.

For the next data set, the system named is TNF-α. The experiment in a line: Western blot of spinal cord protein extract of EAE rats. Format: in vivo, rat. The note with it: treated vs untreated (FIG. 2). On the technique in general: In western blotting, separated proteins are transferred to a membrane and probed.
For another data set, the system named is IL-10. The description is as above. Format: in vivo, rat. To be noted: treated vs untreated (FIG. 2).
The next data set concerns phosphorylated GSK-3β. Described as above. Format: in vivo, rat. To be noted: treated vs untreated (FIG. 2).
A further data set relates to EAE in female C57B1 mice. The experiment in a line: MOG-induced EAE in C57B1 mice, clinical score. Type of data set: in vivo, mouse. The note with it: MOG-immunized C57BL/6J female mice, oral treatment from day 7 (FIG. 3). The procedure:
. The encephalitogenic emulsion containing MOG (300 μg/mouse) in Complete Freund's adjuvant enriched with 5 mg/mL Mycobacterium Tuberculosis was injected subcutaneously in the right flank of the mouse. A boost of the encephalitogenic emulsion was injected subcutaneously in the left flank one week later. Also, on the day of the first injection of MOG, Pertussis toxin (300 ng/mouse) was injected intraperitoneally at a volume dose of 0.1 mL/mouse. The injection of the Pertussis Toxin was repeated after 48 hours. The mice were observed daily from the 10th day post-EAE induction (first injection of MOG) and the EAE clinical signs were scored as follows:. 0—No neurological signs; 1—Distal limp tail: 1.5—Complete limp tail; 2—Difficulties to return on feet when laid on the back; 3—Ataxia; 4—Early paralysis; 5—Full paralysis; 6—Moribund/Death. […] The clinical score was monitored daily starting with the appearance of neurological signs.

Data set [8] relates to colitis in male Balb/C mice. The experiment in a line: Dextran sodium sulfate colitis model. Type of data set: in vivo, mouse. The note with it: 5% DSS Balb/c mice. An excerpt:
Colitis induced by dextran sodium sulfate is a murine model of intestinal inflammation that resembles human inflammatory bowel diseases such as Crohn's disease. Male Balb/C mice, 8 weeks of age were fed for 7 days, with 5% dextran sulfate sodium in distilled water throughout the experiments. […] Weight loss and survival were monitored.

By Ki is commonly meant a dissociation constant, usually derived from enzyme kinetics or from competition with a known ligand. Turning to `OC[C@H]1O[C@@H](n2cnc3c(NC4CCCC4)ncnc32)[C@H](O)[C@@H]1O` [CPA], the Ki in data set [1] came to 0.12 ± 0.015 µM.

In the case of `Nc1nc(Cl)nc2c1ncn2[C@H]1C[C@H](O)[C@@H](CO)O1` [CdA, 2-chloro-2′-deoxyadenosine], on A1 receptor, the “Type of action at A1 receptors” value is recorded as “putative partial agonist”. Besides, the Ki on A2a receptor is 20 µM. In addition, the “Effect on MS disease condition” value in data set [2] is recorded as “markedly ameliorate”.

Usually Emax stands for the maximal effect, on the per cent scale that the assay sets. One may read the EC50 as the concentration that produces a half-maximal response. Lower therefore signals a more potent agent. As to `CCCCC#Cc1nc(N)c2ncn(C3OC(CSC)C(O)C3O)c2n1` (stereo not drawn) [CF402, 5′-deoxy-2-(1-hexynyl)-5′-methylthioadenosine], the “Solubility in DMSO” value in [3] (DMSO) is reported as “Soluble”. For the same compound, in data set [3] (water), the Solubility in water entry was “Insoluble”. The “% displacement at 10^−5 M, A1” value in [4] came out at 36%. Also, in data set [5] (±SEM, n = 3), the inhibition constant (Ki) was 0.06 ± 0.02 µM. This compound also gave an Emax in data set [6] (CHO) of 45 ± 6%. The compound also registered an EC50 in data set [6] (cAMP production, A2A CHO cells) of 0.7 ± 0.1 µM. Also, the “Clinical EAE score vs control group” value in data set [7] is given as “remarkably low clinical score”. In addition, in the data set on TNF-α, the “Level of TNF-α in spinal cord protein extract” value was “down-regulation”. The “Level of IL-10 in spinal cord protein extract” value with IL-10 is listed as “up-regulation”. Further, the “Phosphorylated GSK-3β protein expression level in spinal cord” value in the data set on phosphorylated GSK-3β is recorded as “decrease”. Besides, the “Inhibition of development of EAE clinical signs vs control group” value with EAE in female C57B1 mice amounted to 40%. Further, in data set [8] (10 μg/kg PO BID from day 4), the “Clinical signs of colitis” value was “protected”. In addition, in data set [8] (10 μg/kg PO BID from day 4 (FIG. 4)), the “Weight loss vs control” value was “reduced weight loss”.

Regarding `CNC(=O)[C@H]1O[C@@H](n2cnc3c(NCc4cccc(I)c4)nc(Cl)nc32)[C@H](O)[C@@H]1O` [Cl-IB-MECA, reference compound], the “% displacement at 10^−5 M, A2A” value in data set [5] (10 μM) was found to be 24%.
